For test [1], the target named is C-C chemokine receptor type 2 (Homo sapiens, UniProt P41597). In kind it is cell membranes, CHO-K1, Membrane. Conditions: cho-k1. Further: in other assays of this panel Not Active means under 50% inhibition at 10 µM.
Test [2] in a line: DRUGMATRIX: Platelet-Derived Growth Factor (PDGF) radioligand binding (ligand: [125I] PDGF). In kind it is cell-based. Conditions: nih3t3; Not Active = under 50% inhibition at 10 µM.
The target in test [3] is Beta-3 adrenergic receptor (Homo sapiens, UniProt P13945). In words: DRUGMATRIX: Adrenergic beta3 radioligand binding (ligand: [125I] Cyanopindolol). It counts as cell membranes, HEK293, Membrane. Conditions: hek293; Not Active = under 50% inhibition at 10 µM.
Test [4] can be described thus: DRUGMATRIX: Glutamate, NMDA, Phencyclidine radioligand binding (ligand: [3H] TCP). In kind it is cell membranes, Rattus norvegicus, Wistar, Cerebral cortex, Membrane. The settings on record: Not Active = under 50% inhibition at 10 µM.
Test [5] deals with Prostaglandin G/H synthase 1 (Homo sapiens, UniProt P23219). In words: biochemical. In kind it is tissue-based, Platelet. Conditions: platelet.
Test [6] can be described thus: DRUGMATRIX: Calcium Channel Type L, Benzothiazepine radioligand binding (ligand: [3H] Diltiazem). It counts as cell membranes, Rattus norvegicus, Wistar, Brain, Membrane. Conditions: Not Active = under 50% inhibition at 10 µM.
The target in test [7] is T1, Muscarinic acetylcholine receptor M5 (Homo sapiens, UniProt P08912). Further: in other assays of this panel Not Active means under 50% inhibition at 10 µM.
T1 sequence (P08912 whole entry): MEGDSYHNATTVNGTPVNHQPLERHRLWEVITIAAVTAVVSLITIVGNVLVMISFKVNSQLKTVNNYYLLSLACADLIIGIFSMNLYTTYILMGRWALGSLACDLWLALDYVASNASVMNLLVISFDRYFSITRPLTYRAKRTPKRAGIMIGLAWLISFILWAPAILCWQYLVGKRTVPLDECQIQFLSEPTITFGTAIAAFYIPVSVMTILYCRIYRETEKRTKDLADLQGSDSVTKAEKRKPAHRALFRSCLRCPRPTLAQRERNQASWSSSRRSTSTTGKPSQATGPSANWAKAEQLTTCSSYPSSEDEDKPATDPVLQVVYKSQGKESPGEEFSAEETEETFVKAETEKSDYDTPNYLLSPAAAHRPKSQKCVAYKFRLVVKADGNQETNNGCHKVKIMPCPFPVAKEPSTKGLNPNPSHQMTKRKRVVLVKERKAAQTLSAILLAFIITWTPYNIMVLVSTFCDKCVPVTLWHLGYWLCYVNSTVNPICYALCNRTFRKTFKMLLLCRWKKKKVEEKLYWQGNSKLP
It counts as cell membranes, CHO-K1, Membrane. The settings on record: cho-k1.

For test [8], the target named is T2, Angiotensin-converting enzyme (Oryctolagus cuniculus, UniProt P12822).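 Further: enzymatic inhibition of angiotensin-converting enzyme measured with FAPGG as the substrate; in other assays of this panel Not Active means under 50% inhibition at 10 µM.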
T2 sequence (P12822 whole entry): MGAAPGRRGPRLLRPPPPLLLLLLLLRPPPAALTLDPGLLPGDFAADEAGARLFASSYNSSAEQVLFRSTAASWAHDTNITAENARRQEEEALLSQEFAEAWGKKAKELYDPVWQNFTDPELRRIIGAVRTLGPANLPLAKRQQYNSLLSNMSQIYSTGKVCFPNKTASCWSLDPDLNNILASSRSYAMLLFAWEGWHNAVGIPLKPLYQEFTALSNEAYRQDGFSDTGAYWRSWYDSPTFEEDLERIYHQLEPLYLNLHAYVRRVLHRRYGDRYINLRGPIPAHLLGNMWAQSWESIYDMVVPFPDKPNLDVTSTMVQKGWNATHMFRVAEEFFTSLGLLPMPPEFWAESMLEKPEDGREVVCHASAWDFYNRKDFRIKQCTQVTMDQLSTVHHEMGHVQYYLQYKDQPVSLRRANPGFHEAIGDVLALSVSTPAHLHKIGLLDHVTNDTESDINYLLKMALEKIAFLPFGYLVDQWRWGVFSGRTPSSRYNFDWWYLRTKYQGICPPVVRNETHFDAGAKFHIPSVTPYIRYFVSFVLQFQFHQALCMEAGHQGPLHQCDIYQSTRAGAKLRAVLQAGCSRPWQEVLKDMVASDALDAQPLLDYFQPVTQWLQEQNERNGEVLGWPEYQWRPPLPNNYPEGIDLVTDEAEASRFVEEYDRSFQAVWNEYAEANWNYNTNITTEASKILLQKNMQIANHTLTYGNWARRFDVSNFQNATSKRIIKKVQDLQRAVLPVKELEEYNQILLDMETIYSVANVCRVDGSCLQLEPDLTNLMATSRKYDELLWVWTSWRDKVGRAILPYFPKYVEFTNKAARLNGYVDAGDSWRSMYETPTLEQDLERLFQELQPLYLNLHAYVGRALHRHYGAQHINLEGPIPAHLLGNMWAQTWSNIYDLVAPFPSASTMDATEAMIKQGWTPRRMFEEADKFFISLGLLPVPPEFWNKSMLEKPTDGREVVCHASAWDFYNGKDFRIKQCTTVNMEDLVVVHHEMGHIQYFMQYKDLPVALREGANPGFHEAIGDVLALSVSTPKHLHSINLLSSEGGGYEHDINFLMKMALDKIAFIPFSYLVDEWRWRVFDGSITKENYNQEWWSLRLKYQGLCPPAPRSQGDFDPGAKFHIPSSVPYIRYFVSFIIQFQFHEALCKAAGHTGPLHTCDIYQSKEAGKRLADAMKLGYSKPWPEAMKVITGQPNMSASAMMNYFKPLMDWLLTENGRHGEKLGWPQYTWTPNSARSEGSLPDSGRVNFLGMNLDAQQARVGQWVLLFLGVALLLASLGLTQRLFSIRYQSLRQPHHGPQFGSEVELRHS
In words: biochemical. It counts as tissue-based, Lung.

In a further test the target is T3, Cathepsin G (Homo sapiens, UniProt P08311).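 Further: inhibition of Cathepsin G enzyme activity, tested on an AMC-conjugated peptide substrate; in other assays of this panel Not Active means under 50% inhibition at 10 µM.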
T3 sequence (P08311 whole entry): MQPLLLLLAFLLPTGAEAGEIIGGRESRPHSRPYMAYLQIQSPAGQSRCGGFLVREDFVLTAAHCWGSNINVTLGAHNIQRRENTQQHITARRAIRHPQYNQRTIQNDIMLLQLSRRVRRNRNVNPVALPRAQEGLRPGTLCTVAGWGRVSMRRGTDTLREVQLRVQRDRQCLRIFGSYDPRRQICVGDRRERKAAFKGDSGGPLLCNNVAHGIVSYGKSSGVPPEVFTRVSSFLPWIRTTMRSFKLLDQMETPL
In kind it is tissue-based. The settings on record: neutrophil.

The target in test [9] is T4, C-X-C chemokine receptor type 1 (Homo sapiens, UniProt P25024). Further: in other assays of this panel Not Active means under 50% inhibition at 10 µM.
T4 sequence (P25024 whole entry): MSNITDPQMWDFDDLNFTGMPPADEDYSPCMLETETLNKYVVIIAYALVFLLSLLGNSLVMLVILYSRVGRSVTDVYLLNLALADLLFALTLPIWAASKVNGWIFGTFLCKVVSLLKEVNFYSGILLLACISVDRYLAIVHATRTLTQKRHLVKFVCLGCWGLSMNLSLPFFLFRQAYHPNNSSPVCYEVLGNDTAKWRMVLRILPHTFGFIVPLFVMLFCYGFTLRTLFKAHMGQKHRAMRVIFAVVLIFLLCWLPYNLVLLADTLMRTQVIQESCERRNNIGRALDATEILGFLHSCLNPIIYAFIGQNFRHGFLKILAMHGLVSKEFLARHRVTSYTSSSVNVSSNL

Each structure is given as a SMILES string.

Sequence of Prostaglandin G/H synthase 1 (P23219 whole entry): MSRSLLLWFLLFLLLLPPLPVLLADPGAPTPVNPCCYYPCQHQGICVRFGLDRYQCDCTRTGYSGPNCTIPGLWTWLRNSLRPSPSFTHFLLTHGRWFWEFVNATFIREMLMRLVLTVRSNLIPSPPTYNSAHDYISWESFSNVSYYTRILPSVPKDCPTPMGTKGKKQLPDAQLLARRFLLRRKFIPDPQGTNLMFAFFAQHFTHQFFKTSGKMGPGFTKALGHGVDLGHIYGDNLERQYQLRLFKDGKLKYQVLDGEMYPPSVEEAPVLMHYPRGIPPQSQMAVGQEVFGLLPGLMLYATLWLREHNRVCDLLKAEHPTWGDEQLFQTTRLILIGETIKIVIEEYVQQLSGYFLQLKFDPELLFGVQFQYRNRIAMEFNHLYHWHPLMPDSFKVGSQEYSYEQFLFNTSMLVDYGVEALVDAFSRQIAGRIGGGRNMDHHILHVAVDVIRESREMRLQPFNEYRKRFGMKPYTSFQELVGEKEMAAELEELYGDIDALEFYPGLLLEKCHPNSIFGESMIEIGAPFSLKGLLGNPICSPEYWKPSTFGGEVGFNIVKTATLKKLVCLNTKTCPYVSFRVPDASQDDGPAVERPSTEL
Sequence of C-C chemokine receptor type 2 (P41597 whole entry): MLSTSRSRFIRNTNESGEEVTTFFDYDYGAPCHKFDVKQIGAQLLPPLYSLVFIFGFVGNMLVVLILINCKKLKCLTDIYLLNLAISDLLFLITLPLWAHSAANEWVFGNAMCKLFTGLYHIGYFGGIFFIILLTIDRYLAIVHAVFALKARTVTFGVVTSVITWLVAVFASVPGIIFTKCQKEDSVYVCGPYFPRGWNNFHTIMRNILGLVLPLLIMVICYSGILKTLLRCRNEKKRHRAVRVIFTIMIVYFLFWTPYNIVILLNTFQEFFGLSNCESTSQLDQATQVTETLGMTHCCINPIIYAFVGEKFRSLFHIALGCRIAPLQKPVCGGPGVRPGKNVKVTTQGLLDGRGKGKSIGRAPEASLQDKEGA
Sequence of Beta-3 adrenergic receptor (P13945 whole entry): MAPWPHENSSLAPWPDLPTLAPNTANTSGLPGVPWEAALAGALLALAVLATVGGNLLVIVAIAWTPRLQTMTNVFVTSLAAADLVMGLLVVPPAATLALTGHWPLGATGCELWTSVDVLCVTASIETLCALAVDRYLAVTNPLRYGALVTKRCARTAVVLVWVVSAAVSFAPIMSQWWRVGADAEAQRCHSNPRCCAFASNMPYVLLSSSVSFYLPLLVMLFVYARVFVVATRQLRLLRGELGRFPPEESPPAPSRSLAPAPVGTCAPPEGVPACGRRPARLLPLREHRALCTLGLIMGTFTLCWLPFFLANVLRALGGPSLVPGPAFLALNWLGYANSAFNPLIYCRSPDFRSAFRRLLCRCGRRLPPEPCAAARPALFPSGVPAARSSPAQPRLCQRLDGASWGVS

Broadly, the IC50 is the concentration at which inhibition is half-maximal. For `CC(C)(C)NCC(O)c1ccc(O)c(CO)c1` (stereo not given) [ALBUTEROL], the IC50 result in test [1], in test [2], in test [3], in test [4], in [5] and in test [6] was “Not Active” in each case. Further, the IC50 entry (in [7]; in [8]; at Cathepsin G; in [9]) was “Not Active” each time. In addition, the Ki result in [2], in test [4] and in test [6] was “Not Active” in each case.

Consider `Oc1c(I)cc(I)c2cccnc12` [IODOQUINOL], for which the IC50 result in [1], in test [2], in test [3], in test [4], in test [5] and in test [6] was “Not Active” in each case. Moreover, the IC50 result is “Not Active” in test [7], 906 nM in [8] (read-out: IC50), “Not Active” against Cathepsin G and “Not Active” in test [9]. In addition, the Ki result in [2], in test [4] and in [6] was “Not Active” throughout.

`NNC(=O)c1ccncc1` [ISONIAZID]: the IC50 entry in test [1], in test [2], in [3], in [4], in [5] and in test [6] was “Not Active” in each case. Further, the IC50 entry (in test [7]; in [8]; on Cathepsin G; in [9]) was “Not Active” each time. Also, the Ki result in [2], in test [4] and in test [6] was “Not Active” throughout.

As to `CC1=C(/C=C/C(C)=C/C=C/C(C)=C\C(=O)O)C(C)(C)CCC1` [ISOTRETINOIN], the concentration for half-maximal inhibition (IC50) result in test [1], in test [2], in test [3], in [4], in test [5] and in [6] was “Not Active” each time. Moreover, the IC50 entry (in test [7]; in test [8]; at Cathepsin G; in test [9]) was “Not Active” throughout. In addition, the Ki result in [2], in test [4] and in test [6] was “Not Active” each time.

In the case of `CO[C@@H]1[C@@H](O[C@@H]2O[C@H](C)[C@@H](O[C@H]3C[C@@](C)(O)[C@@H](OC(=O)CC(C)C)[C@H](C)O3)[C@H](N(C)C)[C@H]2O)[C@@H](CC=O)C[C@@H](C)[C@@H](O)/C=C/C=C/C[C@@H](C)OC(=O)C[C@H]1O` [KITASAMYCIN], the half-maximal inhibitory concentration (IC50) result in test [1], in test [2], in test [3], in test [4], in [5] and in test [6] was “Not Active” in each case. The IC50 result (in [7]; in test [8]; against Cathepsin G; in test [9]) was “Not Active” throughout. Besides, the Ki entry in [2], in [4] and in test [6] was “Not Active” throughout.
